The data set has as its system Blattela germanica. Nature of the data set: Topical application to adult female Blattela germanica, mortality after 7 days. The data set is classed as in vivo. The settings on record: 1 μl of 20 μg/μl acetone solution applied to ventral thorax of adult female, 10 insects per group, triplicate. Here is the method:
1 μl of a 20 μg/μl acetone solutions of each of the present compounds No. 1 and the control compound was applied onto the surface of the ventral region of the thorax of adult female Blattela germanica. These insects were kept with a feed (solid feed for rat, Oriental Yeast, Co., Ltd.) and water for 7 days. Subsequently, the insects were examined for death to obtain mortality (10 insects per group, triplicate).
In a similar manner to the Experiment example 1, using a 20 μg/μl acetone solution of each of the present compounds Nos. 2, 3, 4, 5, 6, 7, 10, 11, 13, 14, 15, 16 and 18 instead of the present compound No. 1 and the control compound, the experiment was carried out to obtain mortality of the cockroach.
In a similar manner to the Experiment example 1, using a 2.5 μg/μl acetone solution of each of the present compounds Nos. 5 and 6 instead of the present compound No. 1 and the control compound, the experiment was carried out to obtain mortality of the cockroach.

As for `CCOC(=O)c1c(O)cc(C)oc1=O` [Compound No. 1, ethyl 4-hydroxy-6-methyl-2-oxo-2H-pyrane-3-carboxylate], the mortality came out at 100%.

Compound `CCC(=O)c1c(O)cc(C)oc1=O` [control compound, 4-hydroxy-6-methyl-3-propanoyl-2-pyrone] returned a mortality of 30%.

The values above are taken from US7067523B2, “Use of pyrone carboxylates for controlling pests” (Sumitomo Chemical Company, Limited, priority 2002, dated 2006).
